ChEMBL document CHEMBL1140562, “Anti-AIDS agents 73: structure-activity relationship study and asymmetric synthesis of 3-O-monomethylsuccinyl-betulinic acid derivatives” (Bioorg Med Chem Lett, 2007)
The source made the active and inactive calls. No cut-off for these calls is given here.

Experiments:
[1] = test system: Human immunodeficiency virus 1; test: Antiviral activity against HIV1; format: functional, organism-based
MT2 = test: Cytotoxicity against MT2 cells by XTT assay; format: functional, cell-based; conditions: Homo sapiens
[2] = Therapeutic index, ratio of IC50 for MT2 cells to EC50 for HIV1; format: cell-based; conditions: human, read-out: Ratio IC50/EC50

With `C=C(C)[C@@H]1CC[C@]2(C(=O)O)CC[C@]3(C)[C@H](CC[C@@H]4[C@@]5(C)CC[C@H](OC(=O)CC(C)(C)C(=O)O)C(C)(C)[C@@H]5CC[C@]43C)[C@@H]12` [BEVIRIMAT] the EC50 [1] was 0.0013 µM, the IC50 (MT2) was over 42.8 µM and the selectivity ratio [2] was 30600.

In the case of `C=C(C)[C@@H]1CC[C@]2(C(=O)O)CC[C@]3(C)[C@H](CC[C@@H]4[C@@]5(C)CC[C@H](OC(=O)C[C@H](C)C(=O)O)C(C)(C)[C@@H]5CC[C@]43C)[C@@H]12`, the EC50 [1] is reported as 0.0087 µM, the IC50 (MT2) is reported as 32.8 µM and the selectivity ratio [2] is reported as 6270.

With `C=C(C)[C@@H]1CC[C@]2(C(=O)O)CC[C@]3(C)[C@H](CC[C@@H]4[C@@]5(C)CC[C@H](OC(=O)[C@@H](C)CC(=O)O)C(C)(C)[C@@H]5CC[C@]43C)[C@@H]12` the EC50 [1] was 0.44 µM, the IC50 (MT2) was over 43.8 µM and the selectivity ratio [2] was 100.

With `C=C(C)[C@@H]1CC[C@]2(C(=O)O)CC[C@]3(C)[C@H](CC[C@@H]4[C@@]5(C)CC[C@H](OC(=O)CC(C)C(=O)O)C(C)(C)[C@@H]5CC[C@]43C)[C@@H]12` (stereo partly specified) the EC50 [1] was 0.016 µM, the IC50 (MT2) was over 44.9 µM and the selectivity ratio [2] was 5320.

In the case of `C=C(C)[C@@H]1CC[C@]2(C(=O)O)CC[C@]3(C)[C@H](CC[C@@H]4[C@@]5(C)CC[C@H](OC(=O)C[C@H](C)CO)C(C)(C)[C@@H]5CC[C@]43C)[C@@H]12`, the Activity [1] is reported as “inactive” and the IC50 (MT2) is reported as over 44.9 µM.

In the case of `C=C(C)[C@@H]1CC[C@]2(C(=O)O)CC[C@]3(C)[C@H](CC[C@@H]4[C@@]5(C)CC[C@H](OC(=O)[C@H](C)CC(=O)O)C(C)(C)[C@@H]5CC[C@]43C)[C@@H]12`, the Activity [1] is reported as “inactive” and the IC50 (MT2) is reported as over 43.8 µM.

Work on `C=C(C)[C@@H]1CC[C@]2(C(=O)O)CC[C@]3(C)[C@H](CC[C@@H]4[C@@]5(C)CC[C@H](OC(=O)C[C@@H](C)C(=O)O)C(C)(C)[C@@H]5CC[C@]43C)[C@@H]12` yielded an EC50 [1] of 0.12 µM, an IC50 (MT2) of over 43.8 µM and a selectivity ratio [2] of 961.

Work on `Cc1cn([C@H]2C[C@H](N=[N+]=[N-])[C@@H](CO)O2)c(=O)[nH]c1=O` [ZIDOVUDINE] yielded an EC50 [1] of 0.34 µM and an IC50 (MT2) of 1870 µM.
